Results from article PMC10484210 (Biochemistry, 2023).

What was measured:
BcPurE = BcPurE (Burkholderia cenocepacia, UniProt B4EA21); experiment: biochemical; assay type: biochemical; conditions: for inhibition of PurE activity in initial screen: two concentrations, 10 and 100 μM, against BcPurE
human PAICS = human PAICS (Homo sapiens, UniProt P22234); assay type: biochemical; conditions: two concentrations, 10 and 100 μM
Chain of human PAICS (P22234 whole entry): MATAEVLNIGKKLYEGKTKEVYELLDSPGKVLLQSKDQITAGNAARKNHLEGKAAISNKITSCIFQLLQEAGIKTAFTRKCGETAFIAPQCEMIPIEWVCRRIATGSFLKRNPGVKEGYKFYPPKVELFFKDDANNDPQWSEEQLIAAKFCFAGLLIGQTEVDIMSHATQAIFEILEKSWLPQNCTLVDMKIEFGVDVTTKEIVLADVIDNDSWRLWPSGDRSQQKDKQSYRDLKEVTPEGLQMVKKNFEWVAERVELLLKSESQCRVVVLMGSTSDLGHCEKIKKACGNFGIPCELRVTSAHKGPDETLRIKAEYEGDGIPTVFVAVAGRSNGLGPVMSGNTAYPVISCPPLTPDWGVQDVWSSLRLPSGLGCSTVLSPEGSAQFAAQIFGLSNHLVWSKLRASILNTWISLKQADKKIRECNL

Chain of BcPurE (B4EA21 1-173): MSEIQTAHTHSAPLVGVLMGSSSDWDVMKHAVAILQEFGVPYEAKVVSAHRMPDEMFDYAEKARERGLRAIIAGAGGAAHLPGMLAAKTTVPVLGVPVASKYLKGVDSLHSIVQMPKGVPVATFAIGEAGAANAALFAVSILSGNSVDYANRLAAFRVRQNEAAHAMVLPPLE

SMILES | inhibition of PurE activity in initial screen (BcPurE) | inhibition of human PAICS decarboxylation activity (human PAICS) | IC50 (BcPurE)
CCc1cc2c(cc1CC)CC(NC[C@H](O)c1ccc(O)c3[nH]c(=O)ccc13)C2 [Indacaterol] | some degree of inhibition | do inhibit | 
CN(C)C/C=C/C(=O)Nc1cc2c(Nc3ccc(F)c(Cl)c3)ncnc2cc1O[C@H]1CCOC1 [Afatinib] | some degree of inhibition | do inhibit | 
CC(=O)N1CCN(c2ccc(OCC3COC(Cn4ccnc4)(c4ccc(Cl)cc4Cl)O3)cc2)CC1 (centres unmarked) [Ketoconazole] | some degree of inhibition | little or no inhibition | 
COc1ccc(CN=c2[nH]c(N3CCC[C@H]3CO)ncc2C(=O)NCc2ncccn2)cc1Cl [Avanafil] | some degree of inhibition | little or no inhibition | 
COc1cc2nc(N(C)CCCNC(=O)C3CCCO3)nc(N)c2cc1OC (centres unmarked) [Alfuzosin] | some degree of inhibition | little or no inhibition | 47 µM
